Patent publication US20100130425A1, “USE OF TOLL-LIKE RECEPTOR LIGANDS IN TREATING EXCITOTOXIC INJURY, ISCHEMIA AND/OR HYPOXIA” (Oregon Health & Science University, priority 2005, published 2010)

What was measured:
[1] = target: T1, human TLR9 (Homo sapiens, UniProt Q9NR96); test: NF-κB inducible SEAP reporter in 293-hTLR9 cells; assay type: cell-based; details: 5 μM, 18 hours; hydrolysis of pNpp at 405 nm
T1 construct: host or cells: HEK293 (293-hTLR9)
T1 sequence (Q9NR96 26-1032): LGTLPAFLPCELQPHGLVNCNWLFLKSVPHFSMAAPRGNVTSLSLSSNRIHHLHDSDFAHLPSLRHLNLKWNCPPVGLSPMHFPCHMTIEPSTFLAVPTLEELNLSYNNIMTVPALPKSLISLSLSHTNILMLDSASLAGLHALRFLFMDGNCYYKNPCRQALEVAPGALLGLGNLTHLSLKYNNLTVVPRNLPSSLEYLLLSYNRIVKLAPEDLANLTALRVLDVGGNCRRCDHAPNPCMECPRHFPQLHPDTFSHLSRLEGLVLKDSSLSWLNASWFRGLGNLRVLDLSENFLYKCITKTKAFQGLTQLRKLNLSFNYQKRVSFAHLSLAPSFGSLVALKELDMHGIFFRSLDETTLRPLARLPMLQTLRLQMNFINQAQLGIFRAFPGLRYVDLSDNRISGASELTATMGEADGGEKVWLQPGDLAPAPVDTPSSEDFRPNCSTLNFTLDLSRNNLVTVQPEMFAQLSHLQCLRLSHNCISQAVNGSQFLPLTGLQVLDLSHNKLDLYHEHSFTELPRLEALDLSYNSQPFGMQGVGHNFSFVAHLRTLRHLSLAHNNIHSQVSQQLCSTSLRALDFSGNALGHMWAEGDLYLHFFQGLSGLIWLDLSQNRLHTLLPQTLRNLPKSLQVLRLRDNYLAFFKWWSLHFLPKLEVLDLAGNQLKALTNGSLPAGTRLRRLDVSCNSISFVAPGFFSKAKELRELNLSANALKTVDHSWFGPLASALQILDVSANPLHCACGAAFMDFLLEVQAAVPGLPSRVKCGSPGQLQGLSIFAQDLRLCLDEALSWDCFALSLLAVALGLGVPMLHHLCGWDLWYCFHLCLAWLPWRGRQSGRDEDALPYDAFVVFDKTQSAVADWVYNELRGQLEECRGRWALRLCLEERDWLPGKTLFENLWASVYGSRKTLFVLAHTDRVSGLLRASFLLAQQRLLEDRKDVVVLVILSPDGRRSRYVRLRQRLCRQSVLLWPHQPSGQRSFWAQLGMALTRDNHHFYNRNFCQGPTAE
Procedure: FIG. 3 is a bar graph illustrating NF-κB induction following in vitro treatment with an exemplary CpG oligonucleotide. 293-hTLR9 cells transfected with an NFκB inducible reporter plasmid (pNifty2-SEAP) were treated with CpG (5 μM). NFκB induction of alkaline phosphatase expression is indicated as hydrolysis of pNpp at 405 nm.
Human embryonic kidney cell line HEK293 was transfected with an expressible nucleic acid encoding human TLR9 and with an NFκB reporter construct (InvivoGen). The dual transfected cells were incubated with a 5 μM CpG oligonucleotide (SEQ ID NO: 1) for 18 hours.

[2] = tested on: mice subjected to middle cerebral artery occlusion (MCAO); test: In vivo ischemic/reperfusion model (MCAO), mouse model of stroke
Procedure: Ischemic/Reperfusion Model. […] Mice were anesthetized by halothane inhalation (4%/L O2) and maintained with 1.5%/L O2. The middle cerebral artery was blocked by a silicone-coated 8-0 monofilament nylon surgical suture that was threaded through the external carotid to the internal carotid and finally blocks the bifurcation into the MCA and anterior cerebral artery. The filament was maintained intraluminally for 45 min and then removed, thereby restoring blood flow. Cerebral blood flow (CBF) was monitored throughout the surgery by laser Doppler flowmetry (Periflow 5000; Perimed, Sweden). During and 2 hours following surgery, body temperatures was kept constant at 37° C. with a heating pad controlled by a thermostat. Body weights were monitored prior to and following MCAO.
Infarct calculations. […] Perfused brains were placed on a tissue slicer and sectioned into 1 mm thick coronal slices.

[3] = tested on: mouse cortical neuronal cultures
Procedure: In vitro mouse neuronal cultures: Cortical neuronal cultures were prepared as described Jin et al. (Neurochem. Res. 27:1105-1112, 2002) from E-16 mouse pups (C57B1/6, Jackson labs). Briefly, cortices were dissected and separated from meninges, olfactory bulbs, basal ganglia and hippocampi, and the cortices digested in 0.05% trypsin-EDTA for 15 min at 37° C. Cells were triturated and single cell suspension was plated at density of 5×10^5 cells/ml. Cells were cultured in Neurobasal A medium (Invitrogen, Carlsbad) containing 2% B27, 2 mM Glutamate. Neuronal enrichment was determined by staining for neurons, microglia and astrocytes with cell specific markers.
In vitro neuronal ischemia model: Neuronal cultures were treated with varying doses of an exemplary CpG oligonucleotide (SEQ ID NO: 1) in Neurobasal-A media supplemented with 1% Glutamax 24 hours prior to 3 hours oxygen-glucose-deprivation (OGD) treatment. OGD was performed by replacing medium with PBS containing 0.5 mM CaCl2 and 5 mM MgCl2, pH 7.4, and then placing the neuronal cultures in an anaerobic chamber (Form a Scientific) containing an atmosphere of 85% N2, 5% H2, 10% CO2 maintained at 35° C. Following OGD-treatment (3 hours), PBS was replaced with Minimum Essential Medium (MEM) and the cells returned to normoxic conditions. Percent neuronal cell death was determined by propidium iodide staining in two different fields of view in duplicate, compared to total DAPI staining in identical fields.
In vitro neuronal ischemia model: Neuronal cultures were treated with varying doses (0.1 μg/ml and 1 μg/ml) of Gardiquimod in Neurobasal-A media supplemented with 1% Glutamax 24 hours prior to 3 hours oxygen-glucose-deprivation (OGD) treatment. OGD was performed and cells analyzed as described in Example 1.
OGD was performed and cell analyzed as described in Example 1.

[4] = cited from earlier work
[5] = tested on: mice subjected to bilateral renal ischemia; test: In vivo model of renal ischemia (bilateral renal clamping), serum creatinine; set-up: species or system mouse; details: 48 hours prior to bilateral renal clamping (45 minutes); 48 hours following reperfusion
Procedure: Intraperitoneal Delivery: Preconditioning agent Poly I:C (25 μg) in artificial saline or saline alone (control) was administered intraperitoneally to subject mice 72 hours prior to middle cerebral artery occlusion (MCAO; 45 minutes) as described in Example 3 or 48 hours prior to bilateral renal clamping (45 min).
Creatinine levels: To assess renal injury due to the ischemia, creatinine levels were measured 48 hours following reperfusion as follows. Mice were treated with saline or poly I:C (1.6 mg/kg; sc) 48 hrs prior to renal ischemia. Just prior to surgery blood was collected via the saphenous vien for baseline determination of creatinine levels. Bilateral ischemia was induced as follows: mice were anesthestized with 3% isoflurane and maintained at 1.5-2% throughout surgery. A midline incision was made and both kidneys exteriorized and clamps placed on the artery and veins of each kidney for 45 minutes. After ischemia, the clamps were withdrawn inducing reperfusion and the incision sutured up. Mice were euthanized 48 hr post initiation of reperfusion and blood collected. Serum levels of creatinine were determined via a commercially available immunoassay.

[6] = tested on: IFN-β; test: Serum IFN-β in mice, immunoassay; assay type: in vivo, mouse; details: 1 mg/kg, 2 hours prior to serum collection; versus CpG 0.8 mg/kg and LPS 0.4 mg/kg
Procedure: (§1) Mice were injected with saline, CpG (0.8 mg/kg) LPS (0.4 mg/kg) or Poly I:C (1 mg/kg) 2 hours prior to serum collection. Levels of TNF-α and IFN-β were measured using commercially available immunoassay kits.

[7] = tested on: TNF-α; test: Serum TNF-α in mice, immunoassay; assay type: in vivo, mouse; details: 1 mg/kg, 2 hours prior to serum collection
Procedure: as §1

[8] = tested on: mouse cortical neuronal cultures; test: In vitro neuronal ischemia model, treatment after OGD; assay type: cell-based; details: 1 to 100 μg/ml after 3 hours OGD; analyzed 24 hours later
Procedure: In vitro neuronal ischemia model: Neuronal cultures were exposed to 3 hours oxygen-glucose-deprivation (OGD) treatment as described in Example 1. After OGD, cells were treated with 1 to 100 μg/ml Poly I:C. 24 hours later cells were analyzed as described in Example 1.

[9] = 0.2-1.6 mg/kg subcutaneous 72 hours prior to 60 minutes MCAO, 24 hours post MCAO

In the case of “5′-tccatgacgttcctgacgtt-3′ [CpG oligonucleotide (SEQ ID NO: 1)]”, the “NFκB induction of alkaline phosphatase expression” value [1] is reported as “produced alkaline phosphatase”, the “percent infarct, time course of preconditioning” value ([2]; 20 μg administered between 72 and 24 hours prior to MCAO) is reported as “peak preconditioning” and the “percent infarct, time course of preconditioning” value ([2]; 20 μg administered up to a week prior to MCAO) is reported as “significant preconditioning”. The percent infarct ([2]; intraperitoneal, 72 hours prior to 45 min MCAO) was “percent infarct was significantly decreased” and the “neuroprotection against oxygen-glucose deprivation (percent neuronal cell death)” value ([3]; treated 24 hours prior to 3 hours OGD, propidium iodide staining) was “confers neuroprotection against oxygen-glucose deprivation”.

In the case of CCOCc1nc2c(N)nc3ccccc3c2[nH]1 [CL097], the water solubility [4] is given as ≥ 20 mg/mL.

For CCNCc1nc2c(N)nc3ccccc3c2n1CC(C)(C)O [Gardiquimod], the “percent infarct (% of hemisphere with infarction)” value ([2]; 0.2-1.6 mg/kg 72 hours prior to 60 minutes MCAO, TTC staining 24 hours later) was “percent infarct was significantly decreased in a dose-dependent fashion”, the focal neurological deficit [2, 9] was “reduced neurological deficits” and the general neurological deficit [2, 9] was “reduced neurological deficits”. The “neuroprotection against oxygen-glucose deprivation (% cell death)” value ([3]; 0.1 or 1 μg/ml 24 hours prior to OGD (3 hours), propidium iodide staining 24 hours following OGD) was “confers neuroprotection against oxygen-glucose deprivation”.

In the case of CC(C)Cn1cnc2c(N)nc3ccccc3c21 [imiquimod], the infarct size ([2]; mouse, in vivo, ip) is reported as “protects against cell death”.

In the case of CCOCc1nc2c(N)nc3ccccc3c2n1CC(C)(C)O [resiquimod], the infarct size ([2]; 0.8 mg/kg s.c. 72 hours prior to MCAO, 24 hours following MCAO) is reported as “provides neuroprotection against cerebral ischemia”.

In the case of lipopolysaccharide [LPS], the “infarct size (neuroprotection)” value ([2]; mouse, in vivo, 0.4 mg/kg) is reported as “no considerable neuroprotection”.

In the case of “polyinosinic polycytidylic acid [Poly I:C]”, the “serum creatinine levels (renal injury)” value [5] is reported as “reduced the injury to baseline levels”, the percent infarct ([2]; 25 μg intraperitoneally 72 hours prior to 45 minutes MCAO, TTC 72 hours following surgery) is reported as “percent infarct was significantly decreased” and the “cell death without exposure to OGD” value ([3]; highest dose, no OGD) is reported as “did not induce cell death”. For the same compound, the “neuroprotection against oxygen-glucose deprivation (cell death by PI staining)” value ([3]; mixed cortical cultures, increasing doses 24 hours prior to OGD) was “induces neuroprotection against oxygen-glucose deprivation”, the “serum IFNβ levels” value [6] was “produces significantly more IFNβ than stimulation of TLR9 or TLR4” and the “serum TNFα levels” value [7] was “increases TNFα levels”. The “neuroprotection, treatment after oxygen-glucose deprivation” value [8] was “induces neuroprotection”.
